Literature values as cited in patent publication US8470984B2, “Process for the preparation of morpholinyl anthracycline derivatives” (Nerviano Medical Sciences S.R.L., priority 2010, dated 2013).

## COc1cccc2c1C(=O)c1c(O)c3c(c(O)c1C2=O)C[C@@](O)(C(=O)CO)C[C@@H]3O[C@H]1C[C@H]2[C@H](O[C@@H]3[C@@H](OC)OCCN32)[C@H](C)O1 [compound 1, 3′-deamino-3″-4′-anhydro-[2″(S)-methoxy-3″(R)-hydroxy-4″-morpholinyl]doxorubicin]
Tumor models
  efficacy in in vivo tumor models: effective in in vivo tumor models
other
  cytotoxicity in vitro relative to nemorubicin and doxorubicin: more cytotoxic than nemorubicin and doxorubicin
